# From PMC8910697, “Development of VPC-70619, a Small-Molecule N-Myc Inhibitor as a Potential Therapy for Neuroendocrine Prostate Cancer” (International Journal of Molecular Sciences, 2022)
# “Also recorded” adds a separate entry of the source.
# How the values were obtained:
# HO15.19 cells = assay: Cell viability counter-screen (CellTiter-Glo), Myc-negative HO15.19; format: cell-based
# Summary of the method: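 IMR32 cells (10,000/well) and HO15.19 cells (2000/well), both in EMEM with 10% FBS, were seeded 24 h before 72 h exposure to serial compound dilutions starting at 25 μM. Viability was read by CellTiter-Glo luminescence to give IC50. Single-point testing used 10 µM.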
# [1] = Microsomal stability assay; format: in vitro ADME, Mouse
# Description: A microsomal stability assay was performed using the Corning Gentest NADPH Regenerating System (Corning, #451220/41200) (Corning, NY, USA). Mouse liver microsomes (MLM) (Xenotech, M1000) (Kansas City, KS, USA) and compounds were diluted to a final concentration of 0.15 mg/mL and 1 μM respectively. These were prepared into a 500 μL solution with 100 mM potassium phosphate buffer (pH = 7.4). Imipramine was used as a control. NADPH solutions A and B were mixed in a 5:1 ratio, and 24 μL of the NADPH was added to each of the MLM/compound samples at 30 s intervals. At time points 10, 20, and 45 min, 100 μL of reaction was added to the stopping solution. Samples were centrifuged at 18,000× g and incubated at 4 °C for 10 min. Samples were then loaded onto a LC-MS 96-well plate for analysis.
# [2] = test system: N-Myc-Max binding to DNA E-box; assay: Biolayer interferometry (BLI), N-Myc-Max binding to biotinylated E-box DNA; format: biochemical; conditions: BLI, 0, 50, 100, 200 µM
# Source text: (§1) To confirm that 70619 could disrupt the binding of N-Myc-Max DBD to DNA, we performed a bio-layer interferometry (BLI) assay where we immobilized biotinylated E-box sequence on streptavidin sensors, and we evaluated recombinant N-Myc-Max binding to the DNA in the presence of increasing concentrations of VPC-70619. […] We observed a similar number of interactions when comparing the ratio of signal per nuclei in the presence or absence of the compound.
# The bHLHLZ domain of N-Myc (amino acids 309–394) and Max (amino acids 12–93) protein sequences were cloned into pETDuet with an N-terminal 6×His. pETDuet-His-NMyc-Max was transformed and expressed in E. coli BL21 and induced with 0.5 mM isopropyl-β-D-thiogalactopyranoside (IPTG) at 16 °C overnight. The cultures were lysed by sonication and combined for purification by immobilized metal ion chromatography (IMAC) with nickel-nitrilotriacetic acid (Ni-NTA) resin. The bound proteins were eluted from the column with 20 mM Tris, pH = 8, 500 mM NaCl, 5% glycerol, 300 mM imidazole, 5 mM βMe, and 0.1 mM PMSF. Size exclusion chromatography with Superdex 75 was used to increase the purity of the N-Myc-Max protein sample. The purified protein complex was used in subsequent BLI and MST experiments.
# Biotinylated-duplex DNA (Forward: 5′ Biotin-[…], Reverse: […]) was bound to the super-streptavidin (SSA) ForteBio Sensor in the assay buffer [20 mM Tris pH = 8, 150 mM NaCl, 5% glycerol, and 0.2 mM TCEP]. The protein solution was mixed with the serially diluted compound (70619) to a final concentration of 0.1 mg/mL of protein and 200 μM, 100 μM, and 50 μM for the compound. Sample containing N-Myc-Max protein alone was used as a control.
# [3] = test system: N-Myc-Max transcription activity (LNCaP-NMYC cells); assay: Myc transcription assay (Cignal Myc reporter, luciferase) in LNCaP-NMYC cells; format: cell-based
# Summary of the method: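 LNCaP-NMYC cells transfected with Cignal Myc luciferase reporter were treated 24 h with compounds at 5 µM or 10 µM. Read-out: inhibition of N-Myc-Max-driven reporter luminescence.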
# N-Myc-Max heterodimer = molecular target: T1, N-Myc-Max heterodimer (Homo sapiens, UniProt P04198+P61244); assay: Proximity ligation assay (PLA) in LNCaP-NMYC cells; format: cell-based; conditions: 10 µM, 72 h
# T1 construct: expressed in transfected cells; host or cells: LNCaP-NMYC cells (gift from David Rickman)
# T1 sequence (P04198 whole entry): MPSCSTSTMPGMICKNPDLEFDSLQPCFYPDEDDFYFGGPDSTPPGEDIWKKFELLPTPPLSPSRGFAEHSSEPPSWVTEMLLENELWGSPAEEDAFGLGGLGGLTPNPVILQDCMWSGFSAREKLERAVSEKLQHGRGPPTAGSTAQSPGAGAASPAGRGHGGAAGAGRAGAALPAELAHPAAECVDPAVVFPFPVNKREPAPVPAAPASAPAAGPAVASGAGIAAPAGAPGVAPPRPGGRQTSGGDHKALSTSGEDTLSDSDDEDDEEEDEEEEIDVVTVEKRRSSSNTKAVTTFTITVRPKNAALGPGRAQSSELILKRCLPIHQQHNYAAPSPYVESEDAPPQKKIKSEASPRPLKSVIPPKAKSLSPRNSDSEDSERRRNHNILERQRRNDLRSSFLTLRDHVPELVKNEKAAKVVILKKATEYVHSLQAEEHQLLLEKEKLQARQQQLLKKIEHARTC
# T1 sequence (P61244 whole entry): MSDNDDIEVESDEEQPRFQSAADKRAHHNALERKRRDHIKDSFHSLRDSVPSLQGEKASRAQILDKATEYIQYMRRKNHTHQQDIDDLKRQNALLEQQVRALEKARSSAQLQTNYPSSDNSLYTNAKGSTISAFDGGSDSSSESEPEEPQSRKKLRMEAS
# Description: as §1
# LNCaP-NMYC cells were seeded on coverslips at a density of 10^5 cells per well of a 6-well plate. After incubation for 24 h the cells were treated with 10 μM of either 10074-G5 or 70619 for 72 h. The coverslips were fixed with methanol:acetone (3:1) and incubated with primary antibodies n-Myc Antibody (NMYC-1) (Novus Biologicals NB200-109) (Littleton, CO, USA) and MAX Antibody (C-17) (Santa Cruz sc-197) (Dallas, TX, USA) overnight at 4 °C. PLA was conducted using the Duolink In Situ Detection Reagents Red kit (Sigma DUO92008) according to the manufacturer’s protocol. The coverslips were then mounted on slides with VECTASHIELD mounting media with DAPI, and images were taken on ZEISS 780 confocal microscope at 40× magnification.
smiles,measurement,setting,value
N#Cc1ccc(NNC(=O)c2ccc(C#N)c(Cl)c2)c(C(F)(F)F)c1 [compound 70619],% Inhibition in HO15.19 (10 µM),"HO15.19 cells; 10 µM, Myc-negative specificity control",14.1%
same,inhibition at 10 µM,"HO15.19 cells; Rattus norvegicus, HO15.19, 10 µM, Myc-negative specificity control",14%
same,cytotoxicity in Myc-negative HO15.19 (in words),HO15.19 cells; counter-screen,did not report any strong inhibitory effects; also recorded: minimal cytotoxicity
same,increase in microsomal stability compared to VPC-70551,[1]; half-life 2310 min vs 140 min,15 fold
same,half-life at 1 μM,"[1]; mouse, mouse liver microsomes, pH 7.4, mouse liver microsomes, 1 µM compound, read-out: microsomal half-life (T1/2)",38.5 h
same,disruption of DNA binding to (N-)Myc-Max (in words),[2],disrupt DNA binding at 100 µM
same,disruption of DNA binding to (N-)Myc-Max (in words),[2]; listed as VPC-70619,effective at blocking N-Myc-Max binding to DNA in a dose-dependent manner
same,IC50,"[3]; 24 h, treatment for 1 day, 0–25 µM, read-out: IC50 in the luciferase transcription inhibition assay",4.3 µM
same,transcription inhibition activity at 5 µM (in words),"[3]; LNCaP-NMYC, 5 µM",restoring the inhibitory activity
same,effect on N-Myc-Max heterodimer interactions (in words),N-Myc-Max heterodimer,does not disrupt Myc-Max complexes
same,effect on N-Myc-Max heterodimer interactions (in words),N-Myc-Max heterodimer; listed as VPC-70619,does not disrupt the N-Myc-Max heterodimer formation
